One compound from US20220411448A1, “CHROMENE-4-ONE DERIVATIVES AS BRAIN-DERIVED NEUROTROPHIC FACTOR (BDNF) MIMETICS” (FLORATEK PHARMA AG, priority 2019, published 2022) can be followed below.

For data set [1], the system named is primary cultures of cerebral cortical astrocytes. Briefly: Glucose uptake ([3H]2-deoxyglucose) in astrocyte cultures. The class given is cell-based, mouse. The settings on record: 10 μM, 30 minutes after application. As for the experimental part: (§1) Primary cultures of cerebral cortical astrocytes were prepared from Swiss albino newborn mice (1-2 days old) as described [Pellerin L, Magistretti P J. Glutamate uptake into astrocytes stimulates aerobic glycolysis: a mechanism coupling neuronal activity to glucose utilization. Proc Natl Acad Sci USA. 1994 Oct. 25; 91(22):10625-9]. This procedure yields cultures that are >95% immunoreactive for glial fibrillary acidic protein.
(§2) Astrocytes are emerging as having significant roles in several homeostatic processes in the brain [Zuchero J B, Barres B A. Glia in mammalian development and disease. Development 2015 142: 3805-3809]. To evaluate the potential effects of Compound A (10 μM) on astrocyte metabolism, the uptake of glucose and lactate release were measured 30 minutes after application of compounds to the culture (FIGS. 2 and 3).
Glucose utilization by cells was measured using radioactive 2-deoxyglucose, a well-established marker of glucose utilization not metabolized within cells. […]
In order to quantify glucose utilization by cells in the presence of Compound A/SND118, radioactive 2-deoxyglucose, a well-established marker of glucose utilization not metabolized within cells, was used. The radioactivity count is thus proportional to the transport and phosphorylation of glucose that enters into the cells. […]

The test system is the same in data set [2]. Briefly: Lactate release assay in astrocyte cultures. It is filed as cell-based, mouse. The note with it: various concentrations, 30 minutes after application. As for the experimental part:
as §1, §2
Lactate release into the medium was measured enzymatically by a modification of the enzymatic spectrophotometric method of Rosenberg and Rush [Rosenberg J C, Rush B F. An enzymatic-spectrophotometric determination of pyruvic and lactic acid in blood. Methodologic aspects. Clin Chem. 1966; 12(5):299-307.]. Incubations were carried out exactly as described for [3H]2DG uptake experiments except for the fact that no tracer and no phenol red (which otherwise interferes with the spectrophotometric determination of lactate) were present in the incubation medium. […]

The nature of data set [3]: Metabolic stability in human liver microsomes. The class given is in vitro ADME. The settings on record: both sexes, pooled liver microsomes, pH 7.4, 0.5 mg/ml protein, read-out: T1/2 LM human. On the procedure:
(§3) Sample type: pooled liver or intestine microsomes; Species: CD1-mouse (male), human (mixed gender) Time points: 0, 10, 20, 40, 60 min cofactors, and negative control;
(§4) Protein content: 0.5 mg/ml: Replicates: 2 with cofactors, 1 without cofactors; Cofactors: NADPH (1 mM)+UDPGA (1 mM)+15 μg/ml alamethicin Buffer: 0.1 M phosphate buffer pH 7.4, 2 mM MgCl2; Spiking solvent: 50% DMSO ( 1/100 to incubation); Quenching solvent: 2-fold volume of 75% ACN, Control: midazolam disappearance rate
(§5) The study compounds were incubated with liver or intestine microsomes as specified above. The collected samples were stored at −20 C until thawed at room temperature, centrifuged and analyzed as presented below.
(§6) The samples were analysed by UPLC/HR-MS (with data dependent MS/MS mode) to monitor substrate depletion (and later optionally metabolite formation). The analytical method was optimised by using the parent compound for optimum chromatographic properties (peak shape and retention) and mass spectrometric ionisation. Disappearance rate of the study compound was estimated based on relative LC/MS peak areas (o min marked as 100%), and was used to calculate in vitro half-life and clearance (and in vivo extrapolation of hepatic clearance).
In general terms: Liver microsomes are a subcellular fraction often used to study metabolism.

Data set [4] is described as follows: Metabolic stability in human plasma. It is filed as in vitro ADME. The note with it: 1 μM. As for the experimental part:
The compounds were incubated with plasma, and the collected samples were analyzed by UPLC/HR-MS to measure stability of the compounds.
Sample type: plasma; Species: CD1-mouse (male), human (mixed gender); Time points: 0, 20, 40, 60, 120 min;
Spiking solvent: 50% DMSO ( 1/100 to incubation); Quenching solvent: 2-fold volume of 100% ACN; Control: propanthelin bromide (human, mouse)
The study compounds were incubated with plasma as specified above. The collected samples were stored at −20 C until thawed at room temperature, centrifuged and analyzed using UPLC/PDA with high resolution mass spectrometry (QE-Orbitrap-MS on DDI mode) to monitor substrate depletion and metabolite formation. The analytical method was optimised by using the parent compounds for optimum chromatographic properties (peak shape and retention) and mass spectrometric ionisation. Disappearance was based on relative LC/MS peak areas (0 min=100%) and will be used to calculate half-lives.

Data set [5] in a line: Metabolic stability in human intestine microsomes. The class given is in vitro ADME. The settings on record: both sexes, pooled intestine microsomes, pH 7.4, intestinal microsomes, 0.5 mg/ml protein, read-out: T1/2 IM human. On the procedure: as §3, §4, §5, §6

The structures appear in SMILES notation.

With `O=c1cc(-c2ccc(CCCC[P+](c3ccccc3)(c3ccccc3)c3ccccc3)cc2)oc2c(O)c(O)ccc12` [SND118, 4-[4-(7,8-dihydroxy-4-oxo-chromen-2-yl)phenyl]butyltriphenylphosphonium bromide], in data set [1], the “uptake of deoxyglucose (glucose uptake)” value is listed as “increased the uptake of deoxyglucose in the same range as glutamate control”. In addition, the “release of L-lactate” value in data set [2] is on record as “increased the release of L-lactate”. Also, the half-life at 1 μM in data set [3] was found to be 18 min; in data set [5], 30.8 min. The “T1/2 plasma Human” value in data set [4] came out at 789 min.
